Here are results for 2 molecules from patent US20230255939A1, “Antimicrobial Agent for Non-Human Animal” (ISHIHARA SANGYO KAISHA, LTD, priority 2020, published 2023).

By MIC90 is commonly meant an inhibitory concentration at the 90% level, which refers to growth in some studies and to a panel of isolates in others. Broadly, the MIC50 is an inhibitory concentration at the 50% level, which refers to growth in some studies and to a panel of isolates in others.

Assay [1] relates to Malassezia pachydermatis (ATCC14522 strain). The experiment in a line: Malassezia otitis externa effect test (dog) (Test Example 3). The assay is classed as in vivo, dog (Beagle). On the set-up: Total score (redness, earwax, itching, rash) Immediately before treatment / Total score (redness, earwax, itching, rash) 7 Days after treatment: scale not given here. As to conditions: for Microbial count (cfu/ml) 7 Days after treatment: 500 ppm agent solution for 1 minute; for Microbial count (cfu/ml) Immediately before treatment: baseline before 500 ppm agent solution; for Total score (redness, earwax, itching, rash) 7 Days after treatment: 5 mL of 500 ppm agent solution for 1 minute; for Improvement rate (%) of microbial count / Improvement rate (%) of symptom total score: 500 ppm for 1 minute, 7 days after treatment; for Total score (redness, earwax, itching, rash) Immediately before treatment: baseline 7 days after inoculation, before 500 ppm agent solution. The procedure:
Test Example 3: Malassezia Otitis Externa Effect Test (Dog) Test Variety: Beagle (19 to 20-Month-Old)
Test Microbial Strain: Malassezia Pachydermatis (ATCC14522 Strain)
A colony of the Malassezia microbe pre-cultured (7 days, 30° C.) on a Sabouraud agar medium was suspended in sterilized physiological saline (microbial concentration of 1.0 × 10^6 cells/mL), and 0.1 mL of the resulting suspension was inoculated into both ears of the test animal. 7 Days after the inoculation, both ears were filled with 5 mL of an agent solution (sterilized physiological saline solution supplemented with 5% DMSO) prepared to have a concentration of the test compound of 500 ppm, and after 1 minute, thoroughly washed with sterilized physiological saline solution.
At the same time, the number of the Malassezia microbe present inside the ears of the sample was also investigated by the following method.
The surface of the ear canal was scraped three times using a cotton swab to collect the microbe, and the collected microbe was suspended in 1 mL of PBS (containing 8 g of sodium chloride, 2.9 g of disodium hydrogen phosphate, 0.2 g of potassium chloride, and 0.2 g of potassium dihydrogen phosphate in 1000 mL) supplemented with 1% v/v of Tween80 (polyoxyethylene sorbitan monooleate: manufactured by Kanto Chemical Co., Ltd.) together with the cotton swab. The resulting suspension was serially diluted 10-fold with the PBS, and 0.1 mL thereof was applied to a CHROMagar Malassezia/Candida medium (trade name; peptone, special enzyme substrate mixture, chloramphenicol, olive oil, agar) and cultured at 30° C. for 4 days. After that, the colonies having a pink to purple color were counted, the microbial count score was calculated, and the improvement rate was determined.

Assay [2] relates to Malassezia pachydermatis (IFM56528). The experiment in a line: Antifungal activity test, inhibitory concentration by WST-8 viability in 96-well plate (Test Example 11). The settings on record: M. pachydermatis IFM56528, 32° C. for 72 hours; for MIC: viability 0%, read-out: Inhibitory concentration MIC100; for MIC50: viability 50%. The assay is classed as cell-based. As for the experimental part:
Test Example 11: Antifungal Activity Test
Test Compounds: Compound No. 1 and Compound No. 6
Test Microbial Strain: Malassezia Pachydermatis (IFM56528)
The Malassezia microbe (Malassezia pachydermatis) cultured for 5 to 7 days in a Sabouraud dextrose medium (1% peptone, 4% dextrose) was suspended in physiological saline and a Malassezia microbe suspension was prepared in such a way as to have an absorbance of 0.0025 at 600 nm. The microbe suspension was placed in a 96-well plate at 190 µL/well, and 10 µL of the test compound dissolved in DMSO was added thereto in such a way as to provide a final concentration of 500, 250, 125, 62.5, 31.25, 16, 8, 4, 2, 1, or 0.5 ppm, and the 96-well plate was subjected to culturing at 32° C. for 72 hours. After culturing, 20 µL each of WST-8 (viable cell counting reagent, manufactured by Nacalai Tesque, Inc.) was added, and the 96-well plate was kept warm at 32° C. for 5 hours to develop a color. The absorbance at 450 nm was measured using a microplate reader (SpectraMax M2, manufactured by Molecular Devices, LLC). The absorbance of a well to which the test compound was added (absorbance in the inventive plot) and the absorbance of a well in the solvent to which the test compound was not added (absorbance in the non-agent treated plot) were measured, the viability (%) of the Malassezia microbe was determined according to the following expression, and the agent concentration at which the viability was 0% was defined as the minimum inhibitory concentration (MIC100). Further, the agent concentration at which the viability was 50% was defined as the half inhibitory concentration (MIC50).
[…] = [(absorbance in non-agent treated plot - absorbance in inventive plot)/absorbance in non-agent treated plot] × 100
For orientation: Tetrazolium dyes change colour on reduction, which living cells bring about.

Values after ≈ are worked out from the molar mass of the structure shown.

In the case of `Cc1ccc(-c2nc(C#N)[nH]c2Cl)cc1` [Compound No. 1, 5-Chloro-4-(4-methylphenyl)-1H-imidazole-2-carbonitrile], in assay [1] (left ear canal swab), the “Microbial count (cfu/ml) 7 Days after treatment” value (“Microbial count (cfu/ml) 7 Days” for short) is reported as 30 cfu/ml and the “Microbial count (cfu/ml) Immediately before treatment” value was 900 cfu/ml. Further, in assay [1] (left ear), the “Total score (redness, earwax, itching, rash) 7 Days after treatment” value (shortened to “Total score … after treatment”) came to 1; the “Improvement rate (%) of microbial count” value amounted to 96.7%; the “Improvement rate (%) of symptom total score” value is reported as 67%; the “Total score (redness, earwax, itching, rash) Immediately before treatment” value is given as 3. For the same molecule, in assay [1] (right ear canal swab), the “Microbial count (cfu/ml) 7 Days” value amounted to 30 cfu/ml and the “Microbial count (cfu/ml) Immediately before treatment” value was 1,300 cfu/ml. Further, in assay [1] (right ear), the “Total score … after treatment” value came to 1; the “Improvement rate (%) of microbial count” value is listed as 97.7%; the “Improvement rate (%) of symptom total score” value was found to be 67%; the “Total score (redness, earwax, itching, rash) Immediately before treatment” value came out at 3. For the same molecule, in assay [2], the MIC90 worked out at 16 µg/mL (≈ 73.5 µM), the MIC worked out at 16 µg/mL (≈ 73.5 µM) and the MIC50 came out at 8 µg/mL (≈ 36.8 µM).

As to `Cc1ccc(-c2nc(C#N)[nH]c2Cl)cc1Cl` [Compound No. 6, 5-chloro-4-(3-chloro-4-methylphenyl)-1H-imidazole-2-carbonitrile], in assay [1] (left ear canal swab), the “Microbial count (cfu/ml) 7 Days” value was 20 cfu/ml and the “Microbial count (cfu/ml) Immediately before treatment” value is reported as 5,300 cfu/ml. For the same molecule, in assay [1] (left ear), the “Total score … after treatment” value was 0; the “Improvement rate (%) of microbial count” value is listed as 99.6%; the “Improvement rate (%) of symptom total score” value is listed as 100%; the “Total score (redness, earwax, itching, rash) Immediately before treatment” value turned out to be 3. In addition, in assay [1] (right ear canal swab), the “Microbial count (cfu/ml) 7 Days” value is given as 20 cfu/ml and the “Microbial count (cfu/ml) Immediately before treatment” value is 2,800 cfu/ml. In assay [1] (right ear), the “Total score … after treatment” value is given as 0; the “Improvement rate (%) of microbial count” value was determined as 99.3%; the “Improvement rate (%) of symptom total score” value was 100%; the “Total score (redness, earwax, itching, rash) Immediately before treatment” value turned out to be 3. For the same molecule, in assay [2], the MIC90 was 4 µg/mL (≈ 15.9 µM), the MIC was 4 µg/mL (≈ 15.9 µM) and the MIC50 came to 2 µg/mL (≈ 7.93 µM).
